Patent US4618622A, “Sulfonates of hydroxycoumarins” (priority 1982, dated 1986)
Where two headings read alike, the source gives them in different places.

How the values were obtained:
Monoaminoxidase A = target: T1, Monoaminoxidase A (Rattus norvegicus, UniProt P21396); assay: biochemical; details: monoaminoxidase A, rat brain homogenate, 14C-tryptamine 0.4 μmol/liter, 37° C., 20 minutes; read-out: Monoaminoxidase inhibition IC50
T1 sequence (P21396 1-526): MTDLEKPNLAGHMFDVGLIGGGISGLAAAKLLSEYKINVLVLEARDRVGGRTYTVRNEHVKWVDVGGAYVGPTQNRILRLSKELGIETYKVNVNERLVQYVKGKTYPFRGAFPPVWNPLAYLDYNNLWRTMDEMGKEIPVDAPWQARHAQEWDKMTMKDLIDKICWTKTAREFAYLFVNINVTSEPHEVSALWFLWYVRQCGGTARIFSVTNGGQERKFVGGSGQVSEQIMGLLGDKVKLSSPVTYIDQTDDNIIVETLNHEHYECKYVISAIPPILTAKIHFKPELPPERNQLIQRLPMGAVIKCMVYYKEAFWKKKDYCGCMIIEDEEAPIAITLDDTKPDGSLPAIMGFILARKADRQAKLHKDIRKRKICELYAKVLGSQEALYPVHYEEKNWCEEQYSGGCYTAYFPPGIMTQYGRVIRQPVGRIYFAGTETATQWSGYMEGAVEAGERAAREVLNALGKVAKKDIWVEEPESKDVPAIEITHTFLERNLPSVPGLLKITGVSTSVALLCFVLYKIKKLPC
Experimental: Monoaminoxidase A is determined in dilute rat brain homogenate to which
1. various concentrations of the test substances and
2. ^14 C-tryptamine in a concentration of 0.4 μmol/liter are added. This mixture is incubated at 37° C. for 20 minutes, after which the reaction is terminated by means of aqueous 0.1N HCl, and the products are extracted with toluene scintillator (PPO+POPOP in toluene) and then determined. The blank value is determined in similar mixtures for an incubation time of t=0 minutes.
The mean inhibitory concentration (IC50) is calculated from the inhibitory values determined, in comparison with the control, at the various inhibitor concentrations, by means of a linear regression after logit-log transformation.

[1] = test system: reserpine-induced hypothermia; assay: Antidepressant action: inhibition of reserpine-induced hypothermia (reserpine test); type: in vivo, mouse (male, Swiss strain); details: read-out: Antidepressant action (mouse) ED50
Experimental: The test substances are administered orally, 60 minutes before the reserpine.

[2] = oral administration, 60 minutes before reserpine 2.15 mg/kg s.c., mouse, temperature 2 hours after

Row | Compound | IC50 (Monoaminoxidase A) [nM] | ED50 [1, 2] [mg/kg] | ED50 ([1]; Mus musculus, po, 2 h) [mg/kg]
1 | O=c1oc2cc(OS(=O)(=O)c3ccccc3)ccc2c2c1CCCC2 [Example 21, 7-Hydroxy-3,4-tetramethylenecoumarin benzenesulfonate] | 550 | – | –
2 | CCCCCCCCS(=O)(=O)Oc1ccc2c(C)c(C)c(=O)oc2c1 [Example 27, 7-Hydroxy-3,4-dimethylcoumarin octanesulfonate] | 34 | – | –
3 | Cc1c(C)c2ccc(OS(=O)(=O)C(F)(F)F)cc2oc1=O [Example 24, 7-Hydroxy-3,4-dimethylcoumarin trifluoromethanesulfonate] | 75 | 3.7 | –
4 | Cc1cc(C)c(S(=O)(=O)Oc2ccc3c(C)c(C)c(=O)oc3c2)c(C)c1 [Example 12, 7-Hydroxy-3,4-dimethylcoumarin 2',4',6'-trimethylbenzenesulfonate] | 51 | – | –
5 | CCCCCS(=O)(=O)Oc1ccc2c(C)c(C)c(=O)oc2c1 [Example 38, 7-Hydroxy-3,4-dimethylcoumarin pentanesulfonate] | – | 1.4 | –
6 | CNS(=O)(=O)Oc1ccc2c(C)c(C)c(=O)oc2c1 [Example 43, 7-Hydroxy-3,4-dimethylcoumarin N-methylamidosulfonate] | – | 1.9 | –
7 | CC(C)S(=O)(=O)Oc1ccc2ccc(=O)oc2c1 [Example 45, 7-Hydroxycoumarin isopropanesulfonate] | 160 | – | –
8 | Cc1c(C)c2ccc(OS(C)(=O)=O)cc2oc1=O [Example 2, 7-Hydroxy-3,4-dimethylcoumarin methanesulfonate] | – | 5.9 | –
9 | Cc1c(C)c2ccc(OS(=O)(=O)c3ccc(Cl)cc3)cc2oc1=O [Example 9, 7-Hydroxy-3,4-dimethylcoumarin 4'-chlorobenzenesulfonate] | – | 6.1 | –
10 | CCS(=O)(=O)Oc1ccc2c(C)c(C)c(=O)oc2c1 [Example 39, 7-Hydroxy-3,4-dimethylcoumarin ethanesulfonate] | – | 1.7 | –
11 | Cc1c(C)c2ccc(OS(=O)(=O)c3cccc([N+](=O)[O-])c3)cc2oc1=O [Example 57, 7-Hydroxy-3,4-dimethylcoumarin 3'-nitrobenzenesulfonate] | – | 1.5 | –
12 | Cc1c(C)c2ccc(OS(=O)(=O)CC(C)C)cc2oc1=O [Example 52, 7-Hydroxy-3,4-dimethylcoumarin 2'-methylpropanesulfonate] | 5.7 | 0.3 | –
13 | Cc1cc(=O)oc2cc(OS(C)(=O)=O)ccc12 [Example 42, 7-Hydroxy-4-methylcoumarin methanesulfonate] | 130 | 19.6 | –
14 | Cc1c(C)c2ccc(OS(=O)(=O)c3ccc(C#N)cc3)cc2oc1=O [Example 18, 7-Hydroxy-3,4-dimethylcoumarin 4'-cyanobenzenesulfonate] | – | 3.6 | –
15 | Cc1c(C)c2ccc(OS(=O)(=O)c3ccc4ccccc4c3)cc2oc1=O [Example 4, 7-Hydroxy-3,4-dimethylcoumarin naphthalene-2'-sulfonate] | – | 4 | –
16 | Cc1c(C)c2ccc(OS(=O)(=O)C(C)C)cc2oc1=O [Example 23, 7-Hydroxy-3,4-dimethylcoumarin isopropanesulfonate] | 3.7 | 3.1 | –
17 | Cc1c(C)c2ccc(OS(=O)(=O)c3ccc(F)cc3)cc2oc1=O [Example 14, 7-Hydroxy-3,4-dimethylcoumarin 4'-fluorobenzenesulfonate] | – | 1.4 | –
18 | Cc1c(C)c2ccc(OS(=O)(=O)c3ccc(Br)cc3)cc2oc1=O [Example 11, 7-Hydroxy-3,4-dimethylcoumarin 4'-bromobenzenesulfonate] | – | 2.5 | –
19 | Cc1cc(=O)oc2cc(OS(=O)(=O)c3ccccc3)ccc12 [Example 41, 7-Hydroxy-4-methylcoumarin benzenesulfonate] | – | 29.7 | –
20 | Cc1c(C)c2ccc(OS(=O)(=O)CCCCl)cc2oc1=O [Example 55, 7-Hydroxy-3,4-dimethylcoumarin 3'-chloropropanesulfonate] | – | 1.3 | –
21 | Cc1cc(=O)oc2cc(OS(=O)(=O)c3ccc(Cl)cc3)ccc12 [Example 40, 7-Hydroxy-4-methylcoumarin 4'-chlorobenzenesulfonate] | 6.5 | – | 8.7
22 | Cc1c(C)c2ccc(OS(=O)(=O)CCl)cc2oc1=O [Example 56, 7-Hydroxy-3,4-dimethylcoumarin chloromethanesulfonate] | – | 3.4 | –

Further lines, with some results ahead:

Row | IC50 (Monoaminoxidase A) [nM] | Compound | ED50 [1, 2] [mg/kg] | ED50 ([1]; Mus musculus, po, 2 h) [mg/kg]
23 | 30 | CCc1cc(=O)oc2cc(OS(=O)(=O)c3ccc(Cl)cc3)ccc12 [Example 31, 4-Ethyl-7-hydroxycoumarin 4'-chlorobenzenesulfonate] | – | –
24 | 9.8 | Cc1cc2ccc(OS(=O)(=O)c3ccc(Br)cc3)cc2oc1=O [Example 19, 7-Hydroxy-3-methylcoumarin 4'-bromobenzenesulfonate] | – | –
25 | 110 | O=c1oc2cc(OS(=O)(=O)c3ccc(Cl)cc3)ccc2c2c1CCCC2 [Example 29, 7-Hydroxy-3,4-tetramethylenecoumarin 4'-chlorobenzenesulfonate] | – | –
26 | 120 | CCc1cc(=O)oc2cc(OS(=O)(=O)c3ccccc3)ccc12 [Example 32, 4-Ethyl-7-hydroxycoumarin benzenesulfonate] | – | –
27 | 23 | CCc1c(C)c2ccc(OS(=O)(=O)c3ccc(Cl)cc3)cc2oc1=O [Example 34, 3-Ethyl-7-hydroxy-4-methylcoumarin 4'-chlorobenzenesulfonate] | – | –
28 | 160 | Cc1c(C)c2ccc(OS(=O)(=O)c3ccc(OC(F)(F)C(F)F)cc3)cc2oc1=O [Example 8, 7-Hydroxy-3,4-dimethylcoumarin 4'-(α,α,β,β-tetrafluoroethoxy)-benzenesulfonate] | – | –
29 | 14 | Cc1c(Cl)c(=O)oc2cc(OS(=O)(=O)C(C)C)ccc12 [Example 60, 7-Hydroxy-3-chloro-4-methylcoumarin isopropanesulfonate] | – | –
30 | 76 | Cc1c(C)c2ccc(OS(=O)(=O)c3cccc4ccccc34)cc2oc1=O [Example 3, 7-Hydroxy-3,4-dimethylcoumarin naphthalene-1'-sulfonate] | – | –
31 | 7.3 | CCCCS(=O)(=O)Oc1ccc2c(C)c(C)c(=O)oc2c1 [Example 26, 7-Hydroxy-3,4-dimethylcoumarin butanesulfonate] | 1.8 | –
32 | 540 | CCOC(=O)c1cc2ccc(OS(=O)(=O)c3ccc(Cl)cc3)cc2oc1=O [Example 50, 7-Hydroxy-3-carboethoxycoumarin 4'-chlorobenzenesulfonate] | – | –
33 | 9.6 | CCCS(=O)(=O)Oc1ccc2c(C)c(C)c(=O)oc2c1 [Example 22, 7-Hydroxy-3,4-dimethylcoumarin propanesulfonate] | 1.4 | –
34 | 110 | Cc1c(C)c2ccc(OS(=O)(=O)c3ccccc3[N+](=O)[O-])cc2oc1=O [Example 6, 7-Hydroxy-3,4-dimethylcoumarin 2'-nitrobenzenesulfonate] | – | –
35 | 67 | CCCc1c(C)c2ccc(OS(=O)(=O)c3ccc(Cl)cc3)cc2oc1=O [Example 37, 7-Hydroxy-4-methyl-3-propylcoumarin 4'-chlorobenzenesulfonate] | – | –
36 | 290 | O=c1oc2cc(OS(=O)(=O)c3ccc(Br)cc3)ccc2c2c1CCCC2 [Example 28, 7-Hydroxy-3,4-tetramethylenecoumarin 4'-bromobenzenesulfonate] | – | –
37 | 540 | CCOC(=O)c1cc2ccc(OS(=O)(=O)c3ccc([N+](=O)[O-])cc3)cc2oc1=O [Example 51, 7-Hydroxy-3-carboethoxycoumarin 4'-nitrobenzenesulfonate] | – | –
38 | 67 | Cc1cc2ccc(OS(=O)(=O)c3ccccc3)cc2oc1=O [Example 20, 7-Hydroxy-3-methylcoumarin benzenesulfonate] | – | –
39 | 6.3 | Cc1cc2ccc(OS(=O)(=O)c3ccc(Cl)cc3)cc2oc1=O [Example 30, 7-Hydroxy-3-methylcoumarin 4'-chlorobenzenesulfonate] | 9 | –
40 | 27 | Cc1c(C)c2ccc(OS(=O)(=O)c3cc(Cl)ccc3Cl)cc2oc1=O [Example 13, 7-Hydroxy-3,4-dimethylcoumarin 2',5'-dichlorobenzenesulfonate] | – | –
41 | 620 | CC(=O)Nc1ccc(S(=O)(=O)Oc2ccc3c(C)c(C)c(=O)oc3c2)cc1 [Example 15, 7-Hydroxy-3,4-dimethylcoumarin 4'-acetylaminobenzenesulfonate] | – | –
42 | 22 | COC(=O)Cc1c(C)c2ccc(OS(=O)(=O)c3ccc(Br)cc3)cc2oc1=O [Example 48, 7-Hydroxy-3-carbomethoxymethyl-4-methylcoumarin 4'-bromobenzenesulfonate] | – | –
43 | 77 | Cc1c(C)c2ccc(OS(=O)(=O)Cc3ccccc3)cc2oc1=O [Example 25, 7-Hydroxy-3,4-dimethylcoumarin phenylmethanesulfonate] | – | –
